Results as given in PubChem BioAssay AID1963838 (Molecular Pharmacology Branch, DTP, NCI, 2024).

Test system: 855422-203-R-J1-PDC complex spheroid viability
Experiment: Anticancer human tumor 855422-203-R-J1-PDC patient-derived bladder carcinoma cell line growth inhibition [POLQ]
Details: for IC50: curve of first compound; for viability, T/C: stronger effect = lower value
How it was run: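 PDC + HUVEC + MSC complex spheroids; POLQ inhibitors ± partner drugs; top conc. at/near clinical Cmax, else 10 microM (SN-38 1 microM), half-log dilutions; 37 degrees C, 5% CO2.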

[1] = second compound 0.0316 µM, first compound 0.0316 µM
[2] = second compound 0.0316 µM, first compound 0.1 µM
[3] = second compound 0.0316 µM, first compound 0.316 µM
[4] = second compound 0.0316 µM, first compound 1 µM
[5] = second compound 0.0316 µM, first compound 3.16 µM
[6] = second compound 0.0316 µM, first compound 10 µM
[7] = second compound 0.1 µM, first compound 0.0316 µM
[8] = second compound 0.1 µM, first compound 0.1 µM
[9] = second compound 0.1 µM, first compound 0.316 µM
[10] = second compound 0.1 µM, first compound 1 µM
[11] = second compound 0.1 µM, first compound 3.16 µM
[12] = second compound 0.1 µM, first compound 10 µM
[13] = second compound 0.316 µM, first compound 0.0316 µM
[14] = second compound 0.316 µM, first compound 0.1 µM
[15] = second compound 0.316 µM, first compound 0.316 µM
[16] = second compound 0.316 µM, first compound 1 µM
[17] = second compound 0.316 µM, first compound 3.16 µM
[18] = second compound 0.316 µM, first compound 10 µM
[19] = second compound 1 µM, first compound 0.0316 µM
[20] = second compound 1 µM, first compound 0.1 µM
[21] = second compound 1 µM, first compound 0.316 µM
[22] = second compound 1 µM, first compound 1 µM
[23] = second compound 1 µM, first compound 3.16 µM
[24] = second compound 1 µM, first compound 10 µM
[25] = second compound 3.16 µM, first compound 0.0316 µM
[26] = second compound 3.16 µM, first compound 0.1 µM
[27] = second compound 3.16 µM, first compound 0.316 µM
[28] = second compound 3.16 µM, first compound 1 µM
[29] = second compound 3.16 µM, first compound 3.16 µM
[30] = second compound 3.16 µM, first compound 10 µM
[31] = second compound 10 µM, first compound 0.0316 µM
[32] = second compound 10 µM, first compound 0.1 µM
[33] = second compound 10 µM, first compound 0.316 µM
[34] = second compound 10 µM, first compound 1 µM
[35] = second compound 10 µM, first compound 3.16 µM
[36] = second compound 10 µM, first compound 10 µM
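Note: spheroids exposed to compounds for seven days before readout.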

SMILES: COc1cc(C2c3cc4c(cc3C(OC3OC5COC(C)OC5C(O)C3O)C3COC(=O)C23)OCO4)cc(OC)c1O (stereo unspecified) + COC1C(OC(N)=O)C(O)C(Oc2ccc3c(O)c(NC(=O)c4ccc(O)c(CC=C(C)C)c4)c(=O)oc3c2C)OC1(C)C
- IC50 (second compound 0.0316 µM): 0.242 µM
- IC50 (second compound 0.1 µM): 0.245 µM
- IC50 (second compound 0.316 µM): 0.227 µM
- IC50 (second compound 1 µM): 0.234 µM
- IC50 (second compound 3.16 µM): 0.21 µM
- IC50 (second compound 10 µM): 0.215 µM
- viability, T/C [1]: 99.4%
- viability, T/C [2]: 99.7%
- viability, T/C [3]: 35.1%
- viability, T/C [4]: 11.9%
- viability, T/C [5]: 8.5%
- viability, T/C [6]: 5.28%
- viability, T/C [7]: 95.2%
- viability, T/C [8]: 102%
- viability, T/C [9]: 36.2%
- viability, T/C [10]: 12.8%
- viability, T/C [11]: 7.81%
- viability, T/C [12]: 4.05%
- viability, T/C [13]: 99.2%
- viability, T/C [14]: 103%
- viability, T/C [15]: 29.4%
- viability, T/C [16]: 13.3%
- viability, T/C [17]: 8.9%
- viability, T/C [18]: 5.06%
- viability, T/C [19]: 107%
- viability, T/C [20]: 99.7%
- viability, T/C [21]: 32.2%
- viability, T/C [22]: 11.6%
- viability, T/C [23]: 7.12%
- viability, T/C [24]: 4.08%
- viability, T/C [25]: 128%
- viability, T/C [26]: 85.9%
- viability, T/C [27]: 29.5%
- viability, T/C [28]: 12.7%
- viability, T/C [29]: 8.6%
- viability, T/C [30]: 4.59%
- viability, T/C [31]: 111%
- viability, T/C [32]: 88.8%
- viability, T/C [33]: 29.9%
- viability, T/C [34]: 12.9%
- viability, T/C [35]: 7.13%
- viability, T/C [36]: 5.19%

SMILES: CC[C@@]1(O)C(=O)OCc2c1cc1n(c2=O)Cc2cc3c(CN(C)C)c(O)ccc3nc2-1 + Nc1ccc(C#CCN(C(=O)Cc2ncc(C(F)(F)F)cc2C(F)(F)F)c2ccc(F)cc2)nn1
- IC50 (second compound 0.0316 µM): 0.0572 µM
- IC50 (second compound 0.1 µM): 0.0667 µM
- IC50 (second compound 0.316 µM): 0.062 µM
- IC50 (second compound 1 µM): 0.0597 µM
- IC50 (second compound 3.16 µM): 0.0664 µM
- IC50 (second compound 10 µM): 0.064 µM
- viability, T/C (second compound 0.0316 µM, first compound 0.000316 µM): 89.5%
- viability, T/C (second compound 0.0316 µM, first compound 0.001 µM): 111%
- viability, T/C (second compound 0.0316 µM, first compound 0.00316 µM): 101%
- viability, T/C (second compound 0.0316 µM, first compound 0.01 µM): 89.6%
- viability, T/C [1]: 86.9%
- viability, T/C [2]: 16.9%
- viability, T/C (second compound 0.1 µM, first compound 0.000316 µM): 83.8%
- viability, T/C (second compound 0.1 µM, first compound 0.001 µM): 129%
- viability, T/C (second compound 0.1 µM, first compound 0.00316 µM): 102%
- viability, T/C (second compound 0.1 µM, first compound 0.01 µM): 98.4%
- viability, T/C [7]: 99.3%
- viability, T/C [8]: 23.3%
- viability, T/C (second compound 0.316 µM, first compound 0.000316 µM): 91.8%
- viability, T/C (second compound 0.316 µM, first compound 0.001 µM): 99%
- viability, T/C (second compound 0.316 µM, first compound 0.00316 µM): 91.8%
- viability, T/C (second compound 0.316 µM, first compound 0.01 µM): 101%
- viability, T/C [13]: 97.1%
- viability, T/C [14]: 17.1%
- viability, T/C (second compound 1 µM, first compound 0.000316 µM): 94.6%
- viability, T/C (second compound 1 µM, first compound 0.001 µM): 88.5%
- viability, T/C (second compound 1 µM, first compound 0.00316 µM): 109%
- viability, T/C (second compound 1 µM, first compound 0.01 µM): 114%
- viability, T/C [19]: 83%
- viability, T/C [20]: 23.1%
- viability, T/C (second compound 3.16 µM, first compound 0.000316 µM): 92.8%
- viability, T/C (second compound 3.16 µM, first compound 0.001 µM): 106%
- viability, T/C (second compound 3.16 µM, first compound 0.00316 µM): 99.4%
- viability, T/C (second compound 3.16 µM, first compound 0.01 µM): 117%
- viability, T/C [25]: 102%
- viability, T/C [26]: 21.3%
- viability, T/C (second compound 10 µM, first compound 0.000316 µM): 98.7%
- viability, T/C (second compound 10 µM, first compound 0.001 µM): 93.7%
- viability, T/C (second compound 10 µM, first compound 0.00316 µM): 97%
- viability, T/C (second compound 10 µM, first compound 0.01 µM): 100%
- viability, T/C [31]: 95.3%
- viability, T/C [32]: 21.2%

SMILES: CCc1cc2c(N3CCc4c(cc(Cn5ccnc5)cc4-c4cn(C)nc4C(F)(F)F)C3=O)cc(C)nc2c(OC)n1 + COC1C(OC(N)=O)C(O)C(Oc2ccc3c(O)c(NC(=O)c4ccc(O)c(CC=C(C)C)c4)c(=O)oc3c2C)OC1(C)C
- IC50 (second compound 0.0316 µM): 2.8 µM
- IC50 (second compound 0.1 µM): 1.45 µM
- IC50 (second compound 0.316 µM): 1.64 µM
- IC50 (second compound 1 µM): 1.75 µM
- IC50 (second compound 3.16 µM): 2.12 µM
- IC50 (second compound 10 µM): 1.22 µM
- viability, T/C [1]: 89.1%
- viability, T/C [2]: 78.2%
- viability, T/C [3]: 75.6%
- viability, T/C [4]: 71.5%
- viability, T/C [5]: 45.7%
- viability, T/C [6]: 25.3%
- viability, T/C [7]: 105%
- viability, T/C [8]: 80%
- viability, T/C [9]: 65.4%
- viability, T/C [10]: 58.9%
- viability, T/C [11]: 43.9%
- viability, T/C [12]: 24.5%
- viability, T/C [13]: 106%
- viability, T/C [14]: 90.2%
- viability, T/C [15]: 67.8%
- viability, T/C [16]: 63%
- viability, T/C [17]: 39.6%
- viability, T/C [18]: 23.5%
- viability, T/C [19]: 114%
- viability, T/C [20]: 79.6%
- viability, T/C [21]: 76.3%
- viability, T/C [22]: 63.3%
- viability, T/C [23]: 41.1%
- viability, T/C [24]: 25.9%
- viability, T/C [25]: 91.2%
- viability, T/C [26]: 86%
- viability, T/C [27]: 75.4%
- viability, T/C [28]: 62%
- viability, T/C [29]: 43.7%
- viability, T/C [30]: 25.4%
- viability, T/C [31]: 83.2%
- viability, T/C [32]: 73.8%
- viability, T/C [33]: 62.7%
- viability, T/C [34]: 56.6%
- viability, T/C [35]: 35.8%
- viability, T/C [36]: 22.1%
